Reference: patent US20100234402A1, “METHODS AND COMPOSITIONS FOR TREATING SPINAL MUSCULAR ATROPHY” (priority 2007, published 2010)
One block for each molecule: values may come before it.

Key:
[1] = molecular target: T1, SMN complex (Homo sapiens, UniProt Q16637); assay: Magnetic beads snRNP assembly assay in vitro with cell extracts; assay type: biochemical; details: for IC50: extracts of untreated cells, read-out: IC50, inhibition of the activity of the SMN complex in vitro
T1 construct: HeLa cell extracts (containing the SMN complex and all the components required for Sm core assembly); endogenous in cells; host or cells: HeLa: S3 cytoplasmic or total extracts for in vitro reactions, HeLa PV total extracts for compound-treated cells
T1 sequence (Q16637 2-294 limits assumed): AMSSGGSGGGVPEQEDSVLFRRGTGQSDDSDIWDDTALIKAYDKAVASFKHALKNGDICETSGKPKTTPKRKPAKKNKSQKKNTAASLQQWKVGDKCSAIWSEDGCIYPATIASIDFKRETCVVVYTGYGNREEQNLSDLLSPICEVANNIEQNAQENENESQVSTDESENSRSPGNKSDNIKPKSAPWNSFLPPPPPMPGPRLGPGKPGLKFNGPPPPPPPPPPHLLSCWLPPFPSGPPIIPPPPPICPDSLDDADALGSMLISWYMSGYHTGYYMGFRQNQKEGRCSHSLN
T1 sequence (O14893 whole entry partner): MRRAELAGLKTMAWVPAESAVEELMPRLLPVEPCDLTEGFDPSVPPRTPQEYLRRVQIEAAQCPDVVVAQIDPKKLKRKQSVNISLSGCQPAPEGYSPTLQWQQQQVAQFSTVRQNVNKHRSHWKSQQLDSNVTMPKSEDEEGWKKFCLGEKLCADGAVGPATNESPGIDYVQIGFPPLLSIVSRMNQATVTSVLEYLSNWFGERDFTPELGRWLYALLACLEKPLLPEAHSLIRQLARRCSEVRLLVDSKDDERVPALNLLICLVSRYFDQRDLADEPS
Description: (§1) Magnetic beads snRNP assembly assay was carried out in the presence of increasing amounts of H2O2. IC50 was calculated from the dose-response curve. The error bars represent SDs from 3 independent measurements. (B) Effect of menadione on the activity of the SMN complex in vitro. The same experimental procedure was carried out as in (A), except that menadione was used instead. (C) Dose-dependent effect of menadione on the activity of the SMN complex in cells. HeLa cells were treated with menadione at the indicated concentrations or with DMSO control for 1 hour. The activity of the SMN complex in extracts from various treated cells was measured in comparison to DMSO control cell extract (100% activity) by magnetic beads snRNP assembly assay. The error bars represent SDs from 3 independent measurements. (D) Extracts from (C) mixed with sample buffer without (−DTT) or with (+DTT) reducing agent were resolved by SDS-PAGE and analyzed by Western blot of the entire membrane with anti-SMN antibody 62E7. The molecular mass markers in 41 kDa are indicated on the left. “redSMN” indicates monomer SMN migrating at normal molecular mass and “oxSMN” indicates disulfide-crosslinked SMN upon oxidation. (E) β-lapachone and menadione generate ROS in live cells. HeLa cells were incubated with ROS indicator dye H2DCFDA (10 μM) or without dye as a control for 30 minutes, and then treated with the compounds at the indicated concentrations or DMSO as a control. Fluorescence images were acquired 30 minutes after the treatment.
(A) Cell extracts treated with 20 μM β-lapachone, or 20 μM β-lapachone together with 20 μM DTT, or DMSO control were analyzed by non-reducing Western blot. The relative levels of monomer SMN (“redSMN”) were calculated as the percentage of that in DMSO control and shown by the blue bar. Assembly activities of the SMN complex were measured by magnetic beads snRNP assembly assay using the same set of treated extracts and shown by the red bar. The error bar represents SDs from 3 independent experiments. (B) The sulfhydryl modifying reagent iodoacetamide inhibits the activity of the SMN complex. In vitro assembly assays were performed in the presence of various concentrations of iodoacetamide. The activity of the SMN complex in the absence of iodoacetamide was set as 100% activity, and the relative activity at each iodoacetamide concentration was calculated in comparison and graphed. The error bars represent SDs from triplicate samples.
For quantitative in vitro assembly assays on magnetic beads, cytoplasmic extracts were prepared and used for assembly on biotin-labeled snRNAs using the standard reconstitution conditions in 96-well plates. Following the reactions, Y12 antibodies immobilized onto the magnetizable Dynabeads Protein A (Dynal Biotech ASA, Oslo, Norway) in 100 μl of RSB-500 buffer ([…]) containing 2 mg/ml heparin, 0.1% NP-40, and 0.2 U/.μl RNasin Plus RNase inhibitor (Promega, Madison, Wis.) were added to each well. Immunoprecipitations in the 96-well plates were carried out with gentle mixing at 750 rpm in a Thermomixer (Eppendorf, Germany) at 30° C. for 1 hour. The plates were subsequently transferred to a Kingfisher 96 magnetic particle processor (Thermo Labsystems, Vantaa, Finland) for automatic washing of the Dynabeads in each well with wash buffer (RSB-500, 0.1% NP-40) 5 times. After the last wash, beads bound to Y12 immunoprecipitated snRNPs were then resuspended in 120 μl of wash buffer containing 0.08 μg/ml horseradish peroxidase (HRP)-conjugated NeutrAvidin.TM. (Pierce, Rockford, Ill.). Following incubation at 30° C. for 1 hour with gentle mixing, the beads in each well were again washed five times with the Kingfisher 96 magnetic particle processor, and finally resuspended in 150 μl of SuperSignal ELISA Femto Substrate Working Solution (Pierce). […]

[2] = molecular target: T1, SMN complex; assay: Magnetic beads snRNP assembly assay on extracts from compound-treated HeLa cells; assay type: cell-based
Description: (§2) (B) Concentration-dependent inhibition of the activity of the SMN complex by b-lapachone in cells. HeLa cells were treated with various concentrations of β-lapachone or with DMSO (control) for 1 hour. The activity of the SMN complex in extracts from treated cells was measured using magnetic beads snRNP assembly assay and compared to that of DMSO-treated control cells (100% activity). IC50 was calculated from the dose-response graph. The error bars represent SDs from 3 independent measurements. […] Assembly reactions were performed using either cell extracts or purified native […] snRNP proteins lacking the SMN complex (Sm proteins). Both samples were adjusted to contain a similar amount of Sm proteins. Magnetic beads snRNP assembly assay were carried out with U4 or control U4DSm snRNA in the presence of either 20 or 100 μM β-lapachone or DMSO control. Sm core assembly on U4 snRNA in the presence of DMSO was considered 100% activity. The error bars represent SDs from 3 independent measurements.
In vitro transcription and labeling of RNAs was carried out using MEGAshortscript T7 transcription kit (Ambion) with the modification that 0.65 μM biotin-16-UTP (Roche) and 2.6 μM UTP were used in the reactions to produce biotinlabeled RNAs (Wan et al., 2005). Cell culture, drug treatment and preparation of cell extracts HeLa S3 cell pellets were purchased from National Cell Culture Center. Cytoplasmic extracts competent for snRNP assembly were prepared as described (Pellizzoni et al., 2002). Total cell extracts were made by resuspending cell pellets in reconstitution buffer ([…], 0.2 mM EDTA, 5% glycerol) containing 50 µg/ml digitonin (Calbiochem) and 1× Complete EDTA-free Protease Inhibitor Cocktail (Roche), followed by sonication. Nonidet P-40 (NP-40) was added to a final concentration of 0.01%, followed by centrifugation at 10,000 rpm for 15 minutes at 4° C. Glycerol was then added to the supernatant at a final concentration of 5%. For various drug treatments, two 10 cm plates of HeLa PV cells were treated with each drug at the indicated concentrations and times. Cells were harvested (˜90% confluent) and total cell extracts prepared using the aforementioned procedures. Protein concentrations of various extracts were determined using the Bradford protein assay (BioRad). All of the extracts for the same experiment were adjusted to the same final protein concentration
For quantitative in vitro assembly assays on magnetic beads, cytoplasmic extracts were prepared and used for assembly on biotin-labeled snRNAs using the standard reconstitution conditions in 96-well plates. […] The plates were transferred to a Wallac Victor2 multi-label plate reader (Perkin-Elmer, Wellesley, Mass.) for luminescence measurements at 495 nm. […]

[3] = tested on: ROS in HeLa cells; assay: ROS detection in live HeLa cells with H2DCFDA dye; assay type: cell-based, human; details: for ROS generation in live cells (H2DCFDA fluorescence): 10 μM H2DCFDA, images 30 minutes after treatment
Description: as §1
Additional direct evidence for the ROS-generating activity of the compounds in live cells was obtained by staining cells with 2′,7′-dichlorodihydrofluorescein diacetate (H2DCFDA), a nonfluorescent dye that becomes fluorescent upon exposure to ROS. […] A significant level of ROS was apparent at 0.5 μM β-lapachone and increased proportionally with increasing b-lapachone concentrations.

[4] = tested on: T2, Sm proteins; assay: Sm core assembly from purified native snRNP proteins lacking the SMN complex; assay type: biochemical, human; details: U4 snRNA, 20 or 100 μM
T2 construct: Native, RNA-free total snRNP proteins (TPs) were prepared from HeLa S3 cells; endogenous in cells; host or cells: HeLa S3 cells (pellets from National Cell Culture Center); proteins purified in house by the method of Sumpter et al., 1992
Description: as §2
Native, RNA-free total snRNP proteins (TPs) were prepared from HeLa S3 cells (National Cell Culture Center) as described previously (Sumpter et al., 1992). […] The other half of the samples were immunoprecipitated with anti-Sm monoclonal antibody (Y12), and the immunoprecipitated RNAs were isolated and analyzed by electrophoresis on […] urea/8% polyacrylamide gels. […]

[5] = tested on: transfected luciferase reporter; assay: Transcription and translation of a transfected luciferase reporter in treated cells; assay type: cell-based
[6] = tested on: SMN protein; assay: Quantitative non-reducing Western blot of SMN in extracts of treated HeLa cells; assay type: cell-based, human; details: 5 μM for 3 hours, prepared without DTT
Description: (B) HeLa total cell extracts prepared from cells treated for 3 hours with 5 μM β-lapachone or DMSO control were resolved by SDS-PAGE and analyzed by quantitative Western blotting, using JBP1 and Magoh as loading controls. The extracts were prepared and mixed with sample buffer without reducing agent. The membrane was cut into strips for the probing of each protein at the corresponding molecular mass.
For quantitative Western blot, cell extracts containing 20 g of total proteins were mixed with NuPAGE LDS sample buffer (Invitrogen) with or without reducing agent (Invitrogen), boiled for 5 minutes, and then separated on NuPAGE 4-12% Bis-Tris gels (Invitrogen) and transferred to nitrocellulose membranes. […] Mouse monoclonal antibodies, anti-SMN (62E7), anti-Gemin3 (12H12), anti-Gemin4 (17D10), anti-Gemin5 (10G11), anti-JBP1 (6G8), anti-Magoh (18G12) and anti-Sm (Y12), were used as described previously (Battle et al., 2006b; Lerner et al., 1981; Wan et al., 2005). The IRDye800 anti-mouse IgG secondary antibody (Rockland) was used at 1:5000.
To test this, extracts from b-lapachone-treated cells (at 5 μM for 3 hours) or DMSO-treated control cells were prepared in gel electrophoresis sample buffer without the reducing agent dithiothreitol (DTT) to preserve potential disulfides, resolved by SDS-PAGE, and analyzed by quantitative Western blots. […]

[7] = tested on: SMN; assay: Indirect immunofluorescence of SMN (2B1) and snRNPs (Y12) in HeLa PV cells; assay type: cell-based, human; details: 5 μM for 3 hours vs DMSO control

prevention of the inhibitory effect of b-lapachone on SMN complex activity ([1]; 20 μM b-lapachone with 20 μM DTT): completely neutralized
SMILES: O[C@H](CS)[C@H](O)CS (racemic) [DTT, dithiothreitol]

SMILES: O=C1C(=O)c2ccccc2-c2ccccc21 [9,10-phenanthrenequinone]
inhibition of the SMN complex / assembly in cell extracts (in words) ([1]; in vitro): strongly inhibit

IC50, inhibition of the activity of the SMN complex in vitro ([1]; in vitro, value in words): low millimolar range
SMILES: OO [H2O2, hydrogen peroxide]

prevention of the inhibition of b-lapachone, menadione and H2O2 ([1]; in vitro assembly reactions): completely prevented
SMILES: CC(=O)N[C@@H](CS)C(=O)O [N-acetyl-L-cysteine]

SMILES: NC(=O)CI [iodoacetamide]
inhibition of the SMN complex / assembly in cell extracts (in words) ([1]; in vitro): inhibits

inhibition of SMN complex activity in cells ([2]; HeLa cells treated for 1 hour): dose-dependent inhibition
IC50 [1]: 25 µM
SMILES: CC1=CC(=O)c2ccccc2C1=O [menadione, 2-methyl-1,4-napthoquinone]
ROS generation in live cells (H2DCFDA fluorescence) [3]: Dose-dependent fluorescence

inhibition of the SMN complex / assembly in cell extracts (in words) ([1]; in vitro): strongly inhibit
SMILES: O=C1C(=O)C(Cl)=C(Cl)C(Cl)=C1Cl [tetrachloro-1,2-benzoquinone]

SMILES: CC1(C)CCC2=C(O1)C(=O)c1ccccc1C2=O [α-lapachone]
inhibition of the SMN complex / assembly in cell extracts (in words) ([1]; in vitro): does not inhibit

IC50 ([2]; HeLa cells treated for 1 hour, read-out: IC50, inhibition of the activity of the SMN complex in treated cells): 0.45 µM
inhibition of snRNP assembly ([2]; within 30 minutes of treatment): > 80%
IC50 [1]: ~30 µM
inhibition of the SMN complex / assembly in cell extracts (in words) ([1]; in vitro): inhibited assembly in the cell extracts
effect on Sm core formation from the purified snRNP proteins [4]: no effect
SMILES: CC1(C)CCC2=C(O1)c1ccccc1C(=O)C2=O [β-lapachone, 3,4-dihydro-2,2-dimethyl-2H-naphthol[1,2-b]pyran-5,6-dione]
inhibition of snRNP assembly activity ([2]; extracts from cells treated for 6 hours with subtoxic concentration): about 90%
inhibition of transcription and translation of a transfected luciferase reporter [5]: did not significantly inhibit
decrease of intensity of the SMN band (monomer) compared to DMSO controls [6]: ~60%
SMN signal intensity or localization [7]: no detectable difference
ROS generation in live cells (H2DCFDA fluorescence) [3]: Dose-dependent fluorescence
concentration at which a significant level of ROS was apparent ([3]; HeLa cells, H2DCFDA): 0.5 µM
